{"source": "patent US20220143148A1", "about": "“COMPOSITIONS AND METHODS FOR MODULATING CGRP SIGNALING TO REGULATE INTESTINAL INNATE LYMPHOID CELLS” (The Broad Institute, Inc., priority 2019, published 2022)", "key": {"TDAG8 (GPR65)": {"system": "TDAG8 (GPR65)", "details": "cited from earlier work"}, "TDAG8": {"molecular_target": "T1, TDAG8 (Rattus norvegicus, UniProt A0A8I6AHC6)", "T1 construct": "host or cells: rat, in vivo (endogenous receptor)", "T1 sequence (A0A8I6AHC6 1-337)": "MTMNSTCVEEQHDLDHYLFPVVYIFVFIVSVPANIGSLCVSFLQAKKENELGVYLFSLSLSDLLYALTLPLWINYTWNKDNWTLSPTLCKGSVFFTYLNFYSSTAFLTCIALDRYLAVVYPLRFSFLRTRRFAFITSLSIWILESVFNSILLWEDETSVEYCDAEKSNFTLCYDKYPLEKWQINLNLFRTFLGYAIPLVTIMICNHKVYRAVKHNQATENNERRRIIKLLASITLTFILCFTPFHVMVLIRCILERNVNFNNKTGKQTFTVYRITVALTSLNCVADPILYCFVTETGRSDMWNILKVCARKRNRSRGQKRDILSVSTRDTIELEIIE", "details": "in vivo; cited from earlier work"}, "KLRG1+ ILC2s [1]": {"system": "KLRG1+ ILC2s", "assay": "In vitro proliferation assay (CellTrace Violet, flow cytometry)", "format": "cell-based, mouse", "details": "IL-25 with α-CGRP plus adenylate cyclase inhibitor", "experimental": "(§1) Flow cytometry and cell sorting. Cells were washed and suspended in MACS buffer (pH 7.4; PBS plus 2% FCS and 2 mM EDTA). Nonspecific antibody binding was blocked with CD16/CD32 (2.4G2) antibody for 15 min on ice. Cells were then stained with antibody cocktails for 30 min at 4° C. Lineage-positive cells were excluded for analyzing ILCs by staining for CD3ε (145-2C11), CD5 (53-7.3), CD19 (6D5), CD11b (M1/70), CD8 (53-6.7), CD11c (N418), Gr-1 (RB6-8C5), TCRγδ (eBioGL3 (GL-3, GL3)) and TCRβ (H57-597). To analyze mast cells, lineage-positive cells were excluded by staining for CD3ε, CD5, CD19, CD11c and SiglecF (E50-2440). For surface staining, antibodies for KLRG1 (2F1), CD45 (30-F11), CD127 (A7R34), CCR6 (29-2L17), NKp46 (29A1.4), CD90.2 (53-2.1), FcεRI (Mar-1), IgD (11-26c.2a) and ST2 (DJ8) were used. For intracellular staining, cells were fixed and permeabilized using the Foxp3 transcription factor staining buffer set, followed by staining with anti-GATA-3 (TWAJ) or anti-RORγt (B2D) antibodies. Dead cells were excluded with 7-AAD or Fixable Viability Dye eFluor 780. Flow cytometry was performed on Cytoflex (Beckman Coulter) and analyzed with FlowJo software. Sorting was performed with the SH800S Cell Sorter (Sony Biotechnology).\nILC2 culture. […]"}, "intestinal KLRG1+ ILC2s": {"system": "intestinal KLRG1+ ILC2s", "assay": "Bulk RNA-seq of intestinal KLRG1+ ILC2s stimulated in vitro", "format": "cell-based, mouse", "details": "IL-25 alone in vitro", "text": "To determine if α-CGRP can directly trigger signaling in ILC2s and impact their transcriptional states under inflammatory conditions, Applicants performed bulk RNA-seq of KLRG1^+ ILC2s isolated from the small intestine and stimulated in vitro with IL-25 alone or together with α-CGRP. […] Thus, α-CGRP inhibits IL-25-induced proliferation and activation of intestinal KLRG1+ILC2s.\nThe presence at homeostasis of α-CGRP receptors on ILC2s and α-CGRP's expression on ChAT^+ intestinal neurons led Applicants to hypothesize that it has an effect on ILC2s during homeostasis. To test this hypothesis, Applicants next measured the expression profiles of intestinal KLRG1^+ ILC2s stimulated in vitro by α-CGRP alone, and identified genes differentially expressed under this signal (FIG. 6D, Methods).\nILC2 culture. Sort-purified intestinal KLRG1^+ ILC2s were incubated in RPMI supplemented with 10% FCS, 10 mM Hepes, 1 mM sodium pyruvate, 10% FBS, 80 μm 2-mercaptoethanol, 2 mM glutamine, 100 U/ml penicillin, […] streptomycin, 100 ng/ml IL-2 and 100 ng/ml IL-7 in 96-well round bottom plate at 37° C. and 5% CO2. If indicated, the culture was supplemented with 100 ng/ml IL-25. For the in vitro proliferation assay, cells from different mice were pooled and labeled with CellTrace Violet, and then cultured at 1,000-1,500 cells per well with 10 μg/ml α-CGRP for 60 hours. When indicated, 10 μM forskolin or 1 μM SQ 22, 536 in DMSO was supplied and cells were cultured for 40 hours. For bulk RNA-seq, cells from individual mice were stimulated at 200 cells per well with 0.4 μg/ml α-CGRP for 3 hours. For bulk ATAC-seq, cells were stimulated with 0.4 μg/ml α-CGRP for 2 hours.\nBulk RNA-seq. 200 ILC2s from each condition were lysed in 10 ul TCL buffer plus 0.5% 2-Mercaptoethanol. Libraries were processed with SMART-Seq2 (Picelli et al., 2013) with at least three replicates per condition, and paired-end sequenced (75 bp×2) with a […] Nextseq 500 high output V2 kit.\nReads were aligned to the mouse reference genome (NCBI 38, mm10) using Bowtie (Langmead et al., 2009) with default parameters, and expression abundances were estimated using RSEM software (Li and Dewey, 2011). The differential gene expression analysis was performed with edgeR (Robinson et al., 2010) with default parameters."}, "KLRG1+ ILC2s [2]": {"system": "KLRG1+ ILC2s", "assay": "IL-25-induced in vivo ILC2 activation model", "parameters": "species or system mouse", "details": "IL-25 administration alone", "text": "Intraperitoneal administration of α-CGRP impaired IL-25-induced expansion of KLRG1^+ ILC2s (FIGS. 5B and 12A), consistent with the in vitro results. Recent work has shown that intestinal KLRG1^+ ILC2s can migrate to mesenteric lymph nodes (mLNs) and other tissues during inflammation via sphingosine 1-phosphate (S1P)-mediated chemotaxis (Huang et al., 2018). To determine whether α-CGRP primarily impacts intestinal or mLN ILC2s, Applicants relied on the fact that intestinal GATA3^+ ILC2s are generally phenotypically KLRG1^+ST2^− (data not shown), whereas mLN ILC2s are mainly ST2^+ at steady state (FIG. 5C). IL-25 administration increased the frequency of both KLRG1^+ST2^− inflammatory ILC2s and ST2^+ ILC2s in mLNs (FIGS. 5C-E and 12B). […] Thus, α-CGRP preferentially regulates the response of intestinal KLRG1^+ST2^− ILC2s. […] Taken together, α-CGRP antagonized expansion of intestinal KLRG1^+ ILC2s in two different type 2 inflammatory models.\nTo activate ILC2s in vivo, 200 ng of IL-25 was intraperitoneally injected into 7-10 weeks old mice daily for two days. 1 μg α-CGRP was injected together as noted.\nas §1\nImmunofluorescence staining and imaging. The small intestines were fixed in 2% PFA, embedded in O.C.T. Compound and sliced into 10 μm by frozen section. The slides were blocked with 0.1% Triton X-100, 2% FCS and donkey serum. […] The images were analyzed with ImageJ."}}}
{"molecule": "CN1N=C(SCc2ccc(Cl)cc2Cl)Sc2c1cnn(C)c2=O", "note": "[BTB09089, 3-[(2,4-dichlorobenzyl)thio]-1,6-dimethyl-5,6-dihydro-1H-pyridazino[4,5-e][1,3,4]thiadiazin-5-one]", "values": [{"measurement": "TDAG8 activation in vitro", "setting": "TDAG8 (GPR65)", "result": "activate"}, {"measurement": "efficacy in ischemic stroke murine disease model", "setting": "TDAG8", "result": "in vivo efficacy"}]}
{"molecule": "Nc1ncnc2c1ncn2C1CCCO1", "note": "(stereo not drawn) [SQ22, 536, reference compound]", "values": [{"measurement": "α-CGRP inhibition of ILC2 proliferation", "setting": "KLRG1+ ILC2s [1]", "result": "partially rescues"}]}
{"molecule": "IL-25: cytokine used to activate ILC2s in vitro and in vivo (protein, UniProt Q8VHH8 17-169, looked up) Interleukin-25: VSLRIQEGCSHLPSCCPSKEQEPPEEWLKWSSASVSPPEPLSHTHHAESCRASKDGPLNSRAISPWSYELDRDLNRVPQDLYHARCLCPHCVSLQTGSHMDPLGNSVPLYHNQTVFYRRPCHGEEGTHRRYCLERRLYRVSLACVCVRPRVMA", "values": [{"measurement": "activation phenotype (expression of type 2 cytokines Il13, Il5 and mitotic genes such as Myc)", "setting": "intestinal KLRG1+ ILC2s", "result": "induced the expected activation phenotype"}, {"measurement": "frequency of KLRG1+ST2− inflammatory ILC2s in mLNs", "setting": "KLRG1+ ILC2s [2]", "result": "increased"}, {"measurement": "frequency of ST2+ ILC2s in mLNs", "setting": "KLRG1+ ILC2s [2]", "result": "increased"}]}
